Results published in patent US20070004759A1, “Fungicidal mixtures for controlling rice pathogens” (priority 2004, published 2007).

System: Cochliobolus miyabeanus
Test: Activity against brown spot of rice caused by Cochliobolus miyabeanus, protective application
Type: in vivo
Details: individual active compound, rice seedlings cultivar Tai-Nong 67, protective spray, evaluated six days after inoculation
Description: The active compounds, separately or jointly, were prepared as a stock solution with 0.25% by weight of active compound in acetone or DMSO. 1% by weight of the emulsifier Uniperol® EL (wetting agent having emulsifying and dispersing action based on ethoxylated alkylphenols) was added to this solution, and the solution was diluted with water to the desired concentration.
Leaves of potted rice seedlings of the cultivar “Tai-Nong 67” were sprayed to runoff point with an aqueous suspension of the concentration of active compound stated below. The next day, the plants were inoculated with an aqueous spore suspension of Cochliobolus miyabeanus. The test plants were then placed in climatized chambers at 22-24° C. and 95-99% relative atmospheric humidity for six days. The extent of the development of the infection on the leaves was then determined visually.
Evaluation is carried out by determining the percentage of infected plants. These percentages were converted into efficacies.
The efficacy (E) is calculated as follows using Abbot's formula: E=(1−α/β)·100
α corresponds to the fungicidal infection of the treated plants in % and
β corresponds to the fungicidal infection of the untreated (control) plants in %
An efficacy of 0 means that the infection level of the treated plants corresponds to that of the untreated control plants; an efficacy of 100 means that the treated plants are not infected.
The expected efficacies of mixtures of active compounds are determined using Colby's formula (Colby, R. S., Weeds, 15, 20-22, 1967) and compared with the observed efficacies.
Colby's formula: E=x+y−x·y/100 • E expected efficacy, expressed in % of the untreated control, when using the mixture of the active compounds A and B at the concentrations a and b • x efficacy, expressed in % of the untreated control, when using the active compound A at the concentration a • y efficacy, expressed in % of the untreated control, when using the active compound B at the concentration b

Row | SMILES | Efficacy in % of the untreated control (4 ppm in the spray liquor) [%] | Efficacy in % of the untreated control (16 ppm in the spray liquor) [%]
1 | CC1CCN(c2c(-c3c(F)cc(F)cc3F)c(Cl)nc3ncnn23)CC1 [compound I, 5-chloro-7-(4-methylpiperidin-1-yl)-6-(2,4,6-trifluorophenyl)-[1,2,4]triazolo[1,5-a]pyrimidine] | 5 | 17
2 | CC1(C(=O)Nc2ccc(O)c(Cl)c2Cl)CCCCC1 [compound II, N-(2,3-dichloro-4-hydroxyphenyl)-1-methylcyclohexanecarboxamide] | 0 | 0
3 | C[C@H](Nc1c(-c2c(F)cc(F)cc2Cl)c(Cl)nc2ncnn12)C(F)(F)F [B] | 5 | 41
4 | CC1CCN(c2c(-c3c(F)cccc3Cl)c(Cl)nc3ncnn23)CC1 [A] | 29 | 53
